Laboratory results as given in ChEMBL document CHEMBL2029234, “Sulfonyl-morpholino-pyrimidines: SAR and development of a novel class of selective mTOR kinase inhibitor” (Bioorg Med Chem Lett, 2012).
Values after ≈ are worked out from the molar mass of the structure shown.

Assays:
physchem [1] = settings: buffer, pH 7.4
[2] = biological target: Phosphatidylinositol 4,5-bisphosphate 3-kinase catalytic subunit alpha isoform (Homo sapiens, UniProt P42336); test: Inhibition of human recombinant PI3Kalpha expressed in baculovirus system using PI(4,5)P2 as substrate after 20 mins
[3] = biological target: Serine/threonine-protein kinase mTOR (Homo sapiens, UniProt P42345); test: Inhibition of recombinant FLAG-tagged mTOR kinase expressed in HEK293 cells using Biotin-Ahx-Lys-Lys-Ala-Asn-Gln-Val-Phe-Leu-Gly-Phe-Thr-Tyr-Val-Ala-Pro-Ser-Val-Leu-Glu-Ser-Val-Lys-Glu-NH2 as substrate after 90 mins
[4] = Inhibition of Akt Ser473 phosphorylation in human MDA-MB-468 cells after 2 hrs; format: cell-based; settings: MDA-MB-468, 2 h
[5] = Fraction unbound in rat plasma; format: ADME, cell-free
[6] = biological target: Voltage-gated inwardly rectifying potassium channel KCNH2 (Homo sapiens, UniProt Q12809)
physchem [7] = settings: aqueous, pH 7.4
[8] = Apparent permeability from basal to apical side of MDCK cells; format: ADME, cell-based, Canis lupus familiaris; settings: dog
[9] = Apparent permeability from apical to basal side of MDCK cells; format: ADME, cell-based, Canis lupus familiaris; settings: dog
[10] = Oral bioavailability in rat; format: ADME, organism-based; settings: in vivo
[11] = Plasma clearance in iv dosed rat; format: ADME, organism-based
[12] = Volume of distribution in iv dosed rat; format: ADME, organism-based; settings: in vivo
Cytochrome P450 2C9 = Cytochrome P450 2C9 (Homo sapiens, UniProt P11712); test: Inhibition of CYP2C9; format: ADME
[13] = Inhibition of Cytochrome P450; format: ADME

Phosphatidylinositol 4,5-bisphosphate 3-kinase catalytic subunit alpha isoform, sequence (P42336 whole entry, canonical isoform): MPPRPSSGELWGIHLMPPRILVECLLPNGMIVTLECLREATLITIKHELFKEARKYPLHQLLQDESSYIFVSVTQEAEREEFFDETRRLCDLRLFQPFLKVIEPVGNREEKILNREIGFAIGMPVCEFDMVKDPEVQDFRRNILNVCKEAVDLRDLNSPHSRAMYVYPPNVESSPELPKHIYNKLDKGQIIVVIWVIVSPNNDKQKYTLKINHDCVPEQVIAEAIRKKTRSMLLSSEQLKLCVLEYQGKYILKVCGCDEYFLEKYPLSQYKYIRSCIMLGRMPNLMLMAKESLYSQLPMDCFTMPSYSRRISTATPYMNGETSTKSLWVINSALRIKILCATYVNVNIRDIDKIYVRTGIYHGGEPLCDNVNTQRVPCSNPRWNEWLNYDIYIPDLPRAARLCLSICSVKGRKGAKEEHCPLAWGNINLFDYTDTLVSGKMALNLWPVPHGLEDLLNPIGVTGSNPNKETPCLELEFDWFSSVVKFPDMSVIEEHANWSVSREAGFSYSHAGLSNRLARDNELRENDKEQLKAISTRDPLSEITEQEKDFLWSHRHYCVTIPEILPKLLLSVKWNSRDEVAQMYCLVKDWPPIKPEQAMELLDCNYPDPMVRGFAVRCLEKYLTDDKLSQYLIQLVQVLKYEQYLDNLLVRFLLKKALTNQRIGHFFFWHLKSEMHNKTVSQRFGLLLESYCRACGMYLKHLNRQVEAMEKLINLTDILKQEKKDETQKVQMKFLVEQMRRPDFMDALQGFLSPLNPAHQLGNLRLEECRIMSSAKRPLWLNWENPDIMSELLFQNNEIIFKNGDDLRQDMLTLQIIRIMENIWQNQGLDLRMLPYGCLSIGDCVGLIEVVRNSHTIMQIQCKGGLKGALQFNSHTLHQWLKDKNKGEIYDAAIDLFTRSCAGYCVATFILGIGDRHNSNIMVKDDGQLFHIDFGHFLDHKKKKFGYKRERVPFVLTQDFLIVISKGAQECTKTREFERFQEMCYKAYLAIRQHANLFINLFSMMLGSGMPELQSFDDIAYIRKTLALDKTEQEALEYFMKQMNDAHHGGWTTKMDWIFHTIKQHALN
Voltage-gated inwardly rectifying potassium channel KCNH2, sequence (Q12809 whole entry): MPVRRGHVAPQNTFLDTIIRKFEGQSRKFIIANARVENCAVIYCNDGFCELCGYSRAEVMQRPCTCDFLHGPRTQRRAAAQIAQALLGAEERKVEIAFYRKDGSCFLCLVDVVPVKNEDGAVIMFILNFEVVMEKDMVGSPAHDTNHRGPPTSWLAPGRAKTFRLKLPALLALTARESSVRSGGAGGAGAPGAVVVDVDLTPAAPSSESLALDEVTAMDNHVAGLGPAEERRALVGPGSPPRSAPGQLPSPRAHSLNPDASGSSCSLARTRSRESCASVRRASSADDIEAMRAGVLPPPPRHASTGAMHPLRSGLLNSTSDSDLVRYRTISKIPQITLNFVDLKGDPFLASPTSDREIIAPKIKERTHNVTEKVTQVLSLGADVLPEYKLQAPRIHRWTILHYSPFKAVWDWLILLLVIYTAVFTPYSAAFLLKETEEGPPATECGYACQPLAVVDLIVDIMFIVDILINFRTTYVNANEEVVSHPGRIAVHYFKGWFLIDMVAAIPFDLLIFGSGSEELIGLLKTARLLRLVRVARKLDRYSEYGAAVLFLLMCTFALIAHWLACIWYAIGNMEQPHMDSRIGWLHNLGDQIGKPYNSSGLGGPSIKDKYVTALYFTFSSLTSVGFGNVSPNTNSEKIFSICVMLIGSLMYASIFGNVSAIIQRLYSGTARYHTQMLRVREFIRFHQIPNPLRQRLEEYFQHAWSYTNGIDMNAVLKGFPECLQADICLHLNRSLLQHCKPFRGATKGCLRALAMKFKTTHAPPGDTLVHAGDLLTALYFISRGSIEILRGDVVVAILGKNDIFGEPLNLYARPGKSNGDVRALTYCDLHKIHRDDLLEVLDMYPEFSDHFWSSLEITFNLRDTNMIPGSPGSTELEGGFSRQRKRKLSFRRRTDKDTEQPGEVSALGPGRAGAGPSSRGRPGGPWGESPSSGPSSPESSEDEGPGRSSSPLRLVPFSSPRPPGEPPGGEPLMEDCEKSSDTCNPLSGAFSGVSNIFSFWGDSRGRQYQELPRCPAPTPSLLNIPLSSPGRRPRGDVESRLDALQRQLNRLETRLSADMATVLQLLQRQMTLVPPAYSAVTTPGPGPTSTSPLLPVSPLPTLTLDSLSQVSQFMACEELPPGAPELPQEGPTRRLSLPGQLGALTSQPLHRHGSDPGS
Cytochrome P450 2C9, sequence (P11712 whole entry): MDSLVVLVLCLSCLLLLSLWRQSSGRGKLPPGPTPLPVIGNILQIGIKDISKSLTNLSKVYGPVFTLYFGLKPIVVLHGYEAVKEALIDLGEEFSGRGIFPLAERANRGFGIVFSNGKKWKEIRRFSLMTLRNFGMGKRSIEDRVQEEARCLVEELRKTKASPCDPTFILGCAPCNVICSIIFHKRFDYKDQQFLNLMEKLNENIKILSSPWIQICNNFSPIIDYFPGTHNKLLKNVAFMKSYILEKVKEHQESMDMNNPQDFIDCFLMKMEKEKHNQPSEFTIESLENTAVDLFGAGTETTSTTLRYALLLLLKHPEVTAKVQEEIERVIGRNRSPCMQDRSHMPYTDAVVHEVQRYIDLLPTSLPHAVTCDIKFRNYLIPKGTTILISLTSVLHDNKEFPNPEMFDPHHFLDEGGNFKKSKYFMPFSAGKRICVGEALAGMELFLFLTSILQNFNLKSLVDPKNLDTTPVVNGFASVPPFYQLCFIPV

logD (physchem [1]) | IC50 [2] | IC50 [3] | IC50 [4] | fraction unbound [5] | solubility (physchem [7]) | Papp B→A [8] | Papp A→B [9] | bioavailability [10] | clearance [11] | Vd [12] | IC50 (Cytochrome P450 2C9) | IC50 [13] | Structure (SMILES) | IC50 [6]
 | > 24 µM | > 100000 nM |  |  |  |  |  |  |  |  |  |  | Cn1ccc2cc(-c3nc(CS(C)(=O)=O)cc(N4CCOCC4)n3)ccc21 | 
1.7 | 14.3 µM | 1460 nM | 6.3 µM | 0.301 | 13 µM (≈ 4.84 µg/mL) |  |  |  |  |  |  |  | CS(=O)(=O)Cc1cc(N2CCOCC2)nc(-c2cccc3[nH]ccc23)n1 | > 33 µM
2.1 |  |  | 5.7 µM | 0.193 | 6.2 µM (≈ 2.31 µg/mL) | 34 ×10⁻⁶ cm/s | 37 ×10⁻⁶ cm/s | 3% | 4 mL/min/kg | 0.4 L/kg | 5 µM |  | CS(=O)(=O)Cc1cc(N2CCOCC2)nc(-c2ccc3[nH]ccc3c2)n1 | > 32 µM
 | > 48 µM | 252 nM | 1.9 µM | 0.22 | 1.5 µM (≈ 0.598 µg/mL) |  |  |  |  |  |  |  | CS(=O)(=O)Cc1cc(N2CC3CCC(C2)O3)nc(-c2ccc3[nH]ccc3c2)n1 | > 32 µM
 | 1.06 µM | 285 nM | 7.2 µM |  |  |  |  | 10% | 37 mL/min/kg |  |  |  | CS(=O)(=O)Cc1cc(N2CCOCC2)nc(-c2ccc3[nH]cnc3c2)n1 | > 32 µM
2.4 | 22.9 µM |  | 1.88 µM | 0.167 | 192 µM (≈ 74.2 µg/mL) |  |  | 33% | 36 mL/min/kg |  |  |  | C[C@H]1COCCN1c1cc(CS(C)(=O)=O)nc(-c2ccc3[nH]ccc3c2)n1 | 
 | 5.3 µM |  | 3.1 µM |  |  |  |  |  |  |  |  |  | C[C@@H]1COCCN1c1cc(CS(C)(=O)=O)nc(-c2ccc3[nH]ccc3c2)n1 | 
1.94 | > 1000 µM | 5000 nM | > 30 µM | 0.28 |  |  |  | 97% | 11 mL/min/kg |  |  | > 10 µM | CS(=O)(=O)Cc1cc(N2CCOCC2)nc(-c2ccccc2)n1 | 
 | 0.98 µM | 262 nM | 1.03 µM |  | 48 µM (≈ 17.9 µg/mL) |  |  | 43% | 4 mL/min/kg |  |  |  | CS(=O)(=O)Cc1cc(N2CCOCC2)nc(-c2cnc3[nH]ccc3c2)n1 | > 32 µM

Second part, the molecule before the results:

Structure (SMILES) | logD (physchem [1]) | IC50 [2] | IC50 [3] | IC50 [4] | fraction unbound [5] | solubility (physchem [7]) | Papp B→A [8] | Papp A→B [9] | bioavailability [10] | clearance [11] | Vd [12] | IC50 (Cytochrome P450 2C9) | IC50 [13] | IC50 [6]
CS(=O)(=O)Cc1cc(N2CCOCC2)nc(-c2ccc(NC(=O)Nc3ccc(F)cc3)cc2)n1 | > 3.2 |  |  |  |  |  |  |  |  |  |  |  |  | 
COCc1cccc(-c2nc(CS(C)(=O)=O)cc(N3CCOCC3)n2)c1 |  | > 300 µM | 22500 nM |  |  |  |  |  |  |  |  |  |  | 
CS(=O)(=O)Cc1cc(N2CCOCC2)nc(NC(=O)c2ccno2)n1 | 1.74 | > 100 µM | 37 nM | 5.1 µM | 0.32 |  |  |  |  |  |  |  |  | 
O=S(=O)(CCc1cnccn1)Cc1cc(N2CCOCC2)nc(-c2ccccn2)n1 | < 0.5 | > 90 µM | 3160 nM | > 80 µM |  |  |  |  |  |  |  |  |  | 
CS(=O)(=O)Cc1cc(N2CCOCC2)nc(-c2cccc(CO)c2)n1 |  | 2.05 µM | 601 nM | 3.4 µM | 0.447 |  |  |  | 41% | 25 mL/min/kg |  |  |  | 
O=S(=O)(Cc1cc(N2CCOCC2)nc(-c2ccccn2)n1)c1ccc(F)cc1 |  | 7.6 µM | 1380 nM | 12.4 µM |  |  |  |  |  |  |  |  |  | 
O=S(=O)(Cc1cc(N2CCOCC2)nc(-c2ccccn2)n1)c1ccccc1 | 1.34 |  |  | 9.2 µM |  |  |  |  | 18% | 32 mL/min/kg |  |  | > 10 µM | > 32 µM
CS(=O)(=O)Cc1cc(N2CCOCC2)nc(-c2ccc(NS(C)(=O)=O)cc2)n1 | 0.85 | > 100 µM |  | > 20 µM | > 0.66 | 11 µM (≈ 4.69 µg/mL) |  |  | 38% | 15 mL/min/kg |  |  |  | 
CC(C)S(=O)(=O)Cc1cc(N2CCOCC2)nc(-c2ccccn2)n1 |  | 36.7 µM | 1540 nM | > 30 µM |  |  |  |  |  |  |  |  |  | 
